Source: patent publication US10072016B2, “Substituted 4-phenylpiperidines, their preparation and use” (The Trustees of Columbia University in the City of New York, priority 2014, dated 2018)

Assays:
RBP4 [1] = target: T1, RBP4 (Homo sapiens (Human), UniProt P02753); settings: cited from earlier work
RBP4-TTR interaction [2] = target: T2, RBP4-TTR interaction (Homo sapiens (Human), UniProt P02753); settings: cited from earlier work
serum RBP4 and retinol = serum RBP4 and retinol (Rattus norvegicus (Rat), UniProt P04916); settings: in vivo; cited from earlier work
[3] = test system: ocular all-trans retinol uptake; settings: in vivo; cited from earlier work
Abca4−/− mice = settings: animal model of excessive bisretinoid accumulation; cited from earlier work
[4] = test system: many cell types, including the retinal pigment epithelium cells; settings: cited from earlier work
[5] = in vivo; cited from earlier work
RBP4 [6] = target: T1, RBP4; assay: Scintillation proximity (SPA) RBP4 binding assay; settings: 10 nM 3H-Retinol, 50 nM biotinylated RBP4
Experimental: Scintillation Proximity RBP4 Binding Assay
Untagged human RBP4 purified from urine of tubular proteinuria patients was purchased from Fitzgerald Industries International. It was biotinylated using the EZ-Link Sulfo-NHS-LC-Biotinylation kit from Pierce following the manufacturer's recommendations. Binding experiments were performed in 96-well plates (OptiPlate, PerkinElmer) in a final assay volume of 100 μl per well in SPA buffer (1×PBS, pH 7.4, 1 mM EDTA, 0.1% BSA, 0.5% CHAPS). The reaction mix contained 10 nM ^3H-Retinol (48.7 Ci/mmol; PerkinElmer), 0.3 mg/well Streptavidin-PVT beads, 50 nM biotinylated RBP4 and a test compound. Nonspecific binding was determined in the presence of 20 μM of unlabeled retinol. The reaction mix was assembled in the dark under dim red light. The plates were sealed with clear tape (TopSeal-A: 96-well microplate, PerkinElmer), wrapped in the aluminum foil, and allowed to equilibrate 6 hours at room temperature followed by overnight incubation at +4° C. Radiocounts were measured using a TopCount NXT counter (Packard Instrument Company).

RBP4-TTR interaction [7] = target: T2, RBP4-TTR interaction; assay: TR-FRET (HTRF) assay for retinol-induced RBP4-TTR interaction; type: biochemical; settings: in the presence of 1 μM retinol; read-out: HTRF assay for antagonists of RBP4-TTR interaction: IC50
Source text: Binding of a desired RBP4 antagonist displaces retinol and induces hindrance for RBP4-TTR interaction resulting in the decreased FRET signal (FIG. 7). Bacterially expressed MBP-RBP4 and untagged TTR were used in this assay. […] Following cell lysis, recombinant RBP4 was purified from the soluble fraction using the ACTA FPLC system (GE Healthcare) equipped with the 5-ml the MBP Trap HP column. Human untagged TTR was purchased from Calbiochem. Untagged TTR was labeled directly with Eu^3+ Cryptate-NHS using the HTRF Cryptate Labeling kit from CisBio following the manufacturer's recommendations. HTRF assay was performed in white low volume 384 well plates (Greiner-Bio) in a final assay volume of 16 μl per well. The reaction buffer contained 10 mM Tris-HCl pH 7.5, 1 mM DTT, 0.05% NP-40, 0.05% Prionex, 6% glycerol, and 400 mM KF. […] Titration of test compounds in this assay was conducted in the presence of 1 μM retinol. All reactions were assembled in the dark under dim red light and incubated overnight at +4° C. wrapped in aluminum foil. TR-FRET signal was measured in the SpectraMax M5e Multimode Plate Reader (Molecular Device). […] The TR-FRET signal was expressed as the ratio of fluorescence intensity: Flu665/Flu620×10,000.

SMILES | binding to RBP4 (RBP4 [1]) | displacement of all-trans retinol from RBP4 (RBP4 [1]) | disruption of RBP4-TTR interaction (RBP4-TTR interaction [2]) | serum RBP4 and retinol (serum RBP4 and retinol) | ocular all-trans retinol uptake and visual cycle [3] | A2E production (Abca4−/− mice) | induction of apoptosis [4] | teratogenicity [5] | IC50 (RBP4 [6]) | IC50 (RBP4-TTR interaction [7])
CC1=C(/C=C/C(C)=C/C=C/C(C)=C/C(=O)Nc2ccc(O)cc2)C(C)(C)CCC1 [fenretinide, N-(4-hydroxy-phenyl)retinamide] | bind to RBP4 | displace all-trans retinol from RBP4 | disrupt the RBP4-TTR interaction | reduce serum RBP4 and retinol | inhibit ocular all-trans retinol uptake and slow down the visual cycle | reduced A2E production | extremely active inducer of apoptosis | teratogenic |  | 
COCCN1CCc2c(C(=O)N3CCC(c4cccc(F)c4C(F)(F)F)CC3)n[nH]c2C1 [Compound 73] |  |  |  |  |  |  |  |  | 8.5 nM | 30.6 nM
